Results reported in patent publication US20070149553A1, “Mitotic kinesin inhibitors” (priority 2003, published 2007).
pIC50: −log10 of the molar value.

Target: T1, human KSP motor domain (Homo sapiens, UniProt P52732)
T1 construct: were used to amplify the motor domain and the neck linker region; made in house; host or cells: E. coli BL21 (DE3)
T1 sequence (P52732 18-359 limits assumed): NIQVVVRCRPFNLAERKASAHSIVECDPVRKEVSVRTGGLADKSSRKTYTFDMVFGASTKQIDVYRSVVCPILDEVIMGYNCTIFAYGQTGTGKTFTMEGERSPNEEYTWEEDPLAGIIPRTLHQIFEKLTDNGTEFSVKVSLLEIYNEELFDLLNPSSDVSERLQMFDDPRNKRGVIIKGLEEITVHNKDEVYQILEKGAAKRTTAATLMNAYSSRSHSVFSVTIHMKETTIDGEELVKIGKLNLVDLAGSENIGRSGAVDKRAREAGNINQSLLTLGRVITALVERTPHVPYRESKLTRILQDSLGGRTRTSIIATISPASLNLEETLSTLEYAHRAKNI
Test: Kinesin ATPase In Vitro Assay
Assay type: biochemical
Details: human poly-histidine tagged KSP motor domain (KSP(367H)), microtubules, 1 mM ATP, 23° C.
From the text: I. Kinesin ATPase In Vitro Assay
Cloning and Expression of Human Poly-Histidine Tagged KSP Motor Domain (KSP(367H))
Plasmids for the expression of the human KSP motor domain construct were cloned by PCR using a pBluescript full length human KSP construct (Blangy et al., Cell, vol. 83, pp 1159-1169, 1995) as a template. The N-terminal primer 5′-[…] (SEQ. ID. NO.: 1) and the C-terminal primer 5′-[…] […] (SEQ. ID. NO.: 2) were used to amplify the motor domain and the neck linker region. The PCR products were digested with AseI and XhoI, ligated into the NdeI/XhoI digestion product of pRSETa (Invitrogen) and transformed into E. coli BL21 (DE3).
Cells were grown at 37° C. to an OD600 of 0.5. […]
The kinesin motor domain is incubated with microtubules, 1 mM ATP (1:1 MgCl2: Na-ATP), and compound at 23° C. in buffer containing 80 mM K-HEPES (pH 7.0), 1 mM EGTA, 1 mM DTT, 1 mM MgCl2, and 50 mM KCl. […] Free phosphate from the ATP hydrolysis reaction is measured via a quinaldine red/ammonium molybdate assay by adding 150 μl of quench C buffer containing a 2:1 ratio of quench A:quench B. Quench A contains 0.1 mg/ml quinaldine red and 0.14% polyvinyl alcohol; quench B contains 12.3 mM ammonium molybdate tetrahydrate in 1.15 M sulfuric acid. The reaction is incubated for 10 minutes at 23° C., and the absorbance of the phospho-molybdate complex is measured at 540 nm.

pIC50: ≥ 4.30
Structure (SMILES): Cc1ccc(-n2c(-c3ccccc3Br)nc3sccc3c2=O)cc1 [1-4, 2-(2-bromophenyl)-3-(4-methylphenyl)thieno[2,3-d]pyrimidin-4(3H)-one]
